test system: ring stage parasites (Pf); test: Parasite lactate dehydrogenase (LDH) growth assay (Parasite Assay, PfLDH Assay); type: cell-based, P. falciparum; details: Plasmodium falciparum, 72 h, Table 3; 72 hours growth, LDH readout; read-out: EC50

First: CC1(C)CC(=O)N(C[C@H]2C[C@@H]2C(=O)N[C@H]2CC(C)(C)Oc3cc(Cl)ccc32)C(=N)N1 [Example 90]
Second: CC1(C)CC(=O)N(C[C@H]2C[C@@H]2C(=O)N[C@H]2CC(C)(C)Oc3ccc(Cl)cc32)C(=N)N1 [Example 95]
The EC50 of the first is 2-fold higher: 225 nM for the first, 110 nM for the second. The second is the more potent here.

Going from `CC1(C)CC(=O)N([C@@H](c2cccnc2)[C@H]2C[C@@H]2C(=O)N[C@H]2CC(C)(C)Oc3cc(Cl)ccc32)C(=N)N1` [Example 91A] to `CC1(C)CC(=O)N([C@H](c2cccnc2)[C@H]2C[C@@H]2C(=O)N[C@H]2CC(C)(C)Oc3cc(Cl)ccc32)C(=N)N1` [Example 91B], the EC50 rises from 0.8 nM to 2.7 nM (3.4-fold).

Going from `CCC1(CC)CC(NC(=O)[C@H]2C[C@@H]2[C@@H](CCOC)N2C(=N)NC(C)(C)CC2=O)c2ccccc2O1` (some centres unmarked) [Example 92A] to `COCC[C@H]([C@H]1C[C@@H]1C(=O)NC1CC(C)(C)Oc2c(Cl)cccc21)N1C(=N)NC(C)(C)CC1=O` (some centres unmarked) [Example 112A], the EC50 rises from 7.6 nM to 18 nM (2.4-fold).

`CC1(C)CC(=O)N([C@H](c2cccnc2)[C@H]2C[C@@H]2C(=O)NC2CC(C)(C)Oc3c(F)cccc32)C(=N)N1` (some centres unmarked) [Example 93A] and `CC1(C)CC(=O)N([C@H](c2cccnc2)[C@H]2C[C@@H]2C(=O)NC2CC(C)(C)Oc3c(Cl)cccc32)C(=N)N1` (some centres unmarked) [Example 121A] are within 1.5-fold of each other in EC50: 3.3 nM for the first, 2.5 nM for the second.

`CC1(C)CC(=O)N([C@H](c2cccnc2)[C@H]2C[C@@H]2C(=O)NC2CC(C)(C)Oc3c(Cl)cc(Cl)cc32)C(=N)N1` (some centres unmarked) [Example 94A] and `CC1(C)CC(=O)N([C@H](c2cccnc2)[C@H]2C[C@@H]2C(=O)N[C@H]2CC(C)(C)Oc3ccc(Cl)cc32)C(=N)N1` [Example 120] are within 1.5-fold of each other in EC50: 0.9 nM for the first, 1 nM for the second.

Compared with `COc1cccc2c1C(NC(=O)[C@H]1C[C@@H]1[C@@H](c1cccnc1)N1C(=N)NC(C)(C)CC1=O)CC(C)(C)O2` (some centres unmarked) [Example 96A], `CC1(C)CC(=O)N([C@H](c2cccnc2)[C@H]2C[C@@H]2C(=O)N[C@@H]2CC(C)(C)Oc3c(C(F)(F)F)ccc(F)c32)C(=N)N1` [Example 115A] is 2.4-fold higher in EC50: 2.7 nM for the first, 6.6 nM for the second. The first is the more potent here.

Going from `CC1(C)CC(=O)N(C[C@H]2C[C@@H]2C(=O)NC2CC(C)(C)Oc3c(Cl)cc(Cl)cc32)C(=N)N1` (some centres unmarked) [Example 97A] to `COCC[C@H]([C@H]1C[C@@H]1C(=O)NC1CC(C)(C)Oc2c(Cl)cc(Cl)cc21)N1C(=N)NC(C)(C)CC1=O` (some centres unmarked) [Example 106A], the EC50 falls from 180 nM to 7.4 nM (24-fold). The second is the more potent here.

`CC1(C)CC(=O)N(C[C@H]2C[C@@H]2C(=O)NC2CC(C)(C)Oc3c(C(F)(F)F)ccc(F)c32)C(=N)N1` (some centres unmarked) [Example 99] and `CC1(C)CC(=O)N(C[C@H]2C[C@@H]2C(=O)N[C@H]2CC(C)(C)Oc3ccc(C(F)(F)F)cc32)C(=N)N1` [Example 100] are within 1.5-fold of each other in EC50: 130 nM for the first, 170 nM for the second.

Compared with `COCC[C@H]([C@H]1C[C@@H]1C(=O)N[C@H]1CC(C)(C)Oc2ccc(Cl)cc21)N1C(=N)NC(C)(C)CC1=O` [Example 101], `COCC[C@H]([C@H]1C[C@@H]1C(=O)N[C@H]1CC(C)(C)Oc2cccc(Cl)c21)N1C(=N)NC(C)(C)CC1=O` [Example 116A] is 3.6-fold lower in EC50: 2.9 nM for the first, 0.8 nM for the second.

First: CC[C@@]1(C)CC(=O)N([C@H](c2cncc(F)c2)[C@H]2C[C@@H]2C(=O)N[C@@H]2c3ccccc3OCC2(C)C)C(=N)N1 [Example 102A]
Second: CC[C@@]1(C)CC(=O)N(C(c2cncc(F)c2)[C@H]2C[C@@H]2C(=O)N[C@@H]2c3ccccc3OCC2(C)C)C(=N)N1 (some centres unmarked) [Example 102B]
The EC50 of the first is 3.1-fold lower: 0.8 nM for the first, 2.5 nM for the second. The first is the more potent here.

Compared with `COCC[C@H]([C@H]1C[C@@H]1C(=O)N[C@H]1CC(C)(C)Oc2cccc(OC(F)(F)F)c21)N1C(=N)NC(C)(C)CC1=O` [Example 107A], `COCC[C@H]([C@H]1C[C@@H]1C(=O)N[C@@H]1CC(C)(C)Oc2cccc(OC(F)(F)F)c21)N1C(=N)NC(C)(C)CC1=O` [Example 107B] is 5.2-fold higher in EC50: 2.1 nM for the first, 11 nM for the second.

Compared with `COCC[C@H]([C@H]1C[C@@H]1C(=O)N[C@@H]1CC(C)(C)Oc2ccc(C(F)(F)F)cc21)N1C(=N)NC(C)(C)CC1=O` [Example 110A], `COCC[C@H]([C@H]1C[C@@H]1C(=O)N[C@H]1CC(C)(C)Oc2ccc(C(F)(F)F)cc21)N1C(=N)NC(C)(C)CC1=O` [Example 110B] is 2.9-fold lower in EC50: 21 nM for the first, 7.2 nM for the second.

`COCC[C@H]([C@H]1C[C@@H]1C(=O)NC1CC(C)(C)Oc2c(F)cccc21)N1C(=N)NC(C)(C)CC1=O` (some centres unmarked) [Example 111A] and `COCC[C@H]([C@H]1C[C@@H]1C(=O)N[C@@H]1CC(C)(C)Oc2c(F)cc(F)cc21)N1C(=N)NC(C)(C)CC1=O` [Example 113A] are within 1.5-fold of each other in EC50: 24 nM for the first, 19 nM for the second.

Compared with `COCC[C@H]([C@H]1C[C@@H]1C(=O)N[C@H]1CC(C)(C)Oc2c(F)cc(F)cc21)N1C(=N)NC(C)(C)CC1=O` [Example 113B], `COCC[C@H]([C@H]1C[C@@H]1C(=O)N[C@@H]1CC(C)(C)Oc2c(C(F)(F)F)ccc(F)c21)N1C(=N)NC(C)(C)CC1=O` [Example 114A] is 12-fold higher in EC50: 7.5 nM for the first, 89 nM for the second.

Compared with `COCC[C@H]([C@H]1C[C@@H]1C(=O)N[C@H]1CC(C)(C)Oc2c(C(F)(F)F)ccc(F)c21)N1C(=N)NC(C)(C)CC1=O` [Example 114B], `CC1(C)CC(=O)N([C@H](c2cccnc2)[C@H]2C[C@@H]2C(=O)N[C@H]2CC(C)(C)Oc3c(C(F)(F)F)ccc(F)c32)C(=N)N1` [Example 115B] is 5.1-fold lower in EC50: 5.1 nM for the first, 1 nM for the second. The second is the more potent here.

`COCC[C@H]([C@H]1C[C@@H]1C(=O)N[C@@H]1CC(C)(C)Oc2cccc(Cl)c21)N1C(=N)NC(C)(C)CC1=O` [Example 116B] and `CC1(C)CC(=O)N(C[C@H]2C[C@@H]2C(=O)N[C@H]2CC(C)(C)Oc3cccc(Cl)c32)C(=N)N1` [Example 119] are within 1.5-fold of each other in EC50: 18 nM for the first, 26 nM for the second.

In the case of `CC1(C)CC(=O)N(C[C@H]2C[C@@H]2C(=O)N[C@H]2CC(C)(C)Oc3cccc(OC(F)(F)F)c32)C(=N)N1` [Example 118], the EC50 is reported as 63 nM.

same assay, conditions: Table 3; 72 hours growth, LDH readout; read-out: EC50

`CCC1(CC)CC(NC(=O)[C@H]2C[C@@H]2[C@@H](CCOC)N2C(=N)NC(C)(C)CC2=O)c2ccccc2O1` (some centres unmarked) [Example 92B] and `COCC[C@H]([C@H]1C[C@@H]1C(=O)NC1CC(C)(C)Oc2c(Cl)cccc21)N1C(=N)NC(C)(C)CC1=O` (some centres unmarked) [Example 112B] are within 1.5-fold of each other in EC50: 7.2 nM for the first, 9.4 nM for the second.

`CC1(C)CC(=O)N([C@H](c2cccnc2)[C@H]2C[C@@H]2C(=O)NC2CC(C)(C)Oc3c(F)cccc32)C(=N)N1` (some centres unmarked) [Example 93B] and `CC1(C)CC(=O)N([C@H](c2cccnc2)[C@H]2C[C@@H]2C(=O)NC2CC(C)(C)Oc3c(Cl)cccc32)C(=N)N1` (some centres unmarked) [Example 121B] are within 1.5-fold of each other in EC50: 2.4 nM for the first, 2 nM for the second.

First: COc1cccc2c1C(NC(=O)[C@H]1C[C@@H]1[C@@H](c1cccnc1)N1C(=N)NC(C)(C)CC1=O)CC(C)(C)O2 (some centres unmarked) [Example 96B]
Second: COCC[C@H]([C@H]1C[C@@H]1C(=O)NC1CC(C)(C)Oc2c(F)cccc21)N1C(=N)NC(C)(C)CC1=O (some centres unmarked) [Example 111B]
The EC50 of the first is 4.5-fold lower: 3.3 nM for the first, 15 nM for the second.

Compared with `CC1(C)CC(=O)N(C[C@H]2C[C@@H]2C(=O)NC2CC(C)(C)Oc3c(Cl)cc(Cl)cc32)C(=N)N1` (some centres unmarked) [Example 97B], `COCC[C@H]([C@H]1C[C@@H]1C(=O)NC1CC(C)(C)Oc2c(Cl)cc(Cl)cc21)N1C(=N)NC(C)(C)CC1=O` (some centres unmarked) [Example 106B] is 22-fold lower in EC50: 220 nM for the first, 10 nM for the second. The second is the more potent here.
